According to patent US20240246902A1, “PRODRUGS OF 6-DIAZO-5-OXO-L-NORLEUCINE” (THE JOHNS HOPKINS UNIVERSITY, priority 2021, published 2024):
≈ marks a conversion by molar mass, not a printed value. Where two headings read alike, the source gives them in different places.

Legend:
[1] = Plasma stability, human plasma; format: in vitro ADME; details: HP = Human Plasma
[2] = not told
[3] = Metabolic stability in swine liver tissue homogenate; format: in vitro ADME; details: prodrug 20 μM, 37° C.
Procedure: (§1) The representative Compounds of the Disclosure were screened for metabolic stability in swine jejunum/liver tissue homogenates, following our previously reported methods (Zimmermann et al., J. Med. Chem., 61(9):3918-29 (2018); Tenora et al., J. Med. Chem., 62(7):3524-38 (2019)). In brief, freshly collected tissues were homogenized by probe sonication in 9× volume of 0.1 M potassium phosphate buffer over ice. Post homogenization, prodrugs were spiked at a concentration of 20 μM (in triplicate) and incubated in an orbital shaker at 37° C. for 60 min. Final concentration of DMSO in the incubations was 0.2% v/v. At each time point (0, 30, 60 min), 100 μL of sample was precipitated with 300 μL of methanol containing internal standard (IS; losartan: 0.5 μM). […] After centrifugation, 50 μL of supernatant was diluted with 50 μL of water, vortexed and submitted for analysis. Prodrug disappearance over time was measured using liquid chromatography tandem mass spectrometry (LC-MS/MS).
(§2) The processed supernatants were analyzed on a Thermo Scientific Vanquish UPLC system (equipped with Vanquish autosampler, pumps, and column compartment) hyphenated to TSQ Altis mass spectrometer (Thermo Fisher Scientific Inc., Waltham MA). […] The autosampler was operated at 4° C. […] Peak area ratios obtained from peak area counts of analyte and internal standard were used to measure the disappearance of prodrugs.

[4] = Metabolic stability in swine jejunum (gut) tissue homogenate; format: in vitro ADME; details: prodrug 20 μM, 37° C.
Procedure: as §1, §2

[5] = Plasma stability, rat plasma; format: in vitro ADME; details: RP = Rat Plasma
[6] = Plasma stability, mouse plasma; details: MP = Mouse Plasma
[7] = Plasma stability, plasma from CES1KO mice; details: CES1KO = Mouse Plasma from CES1KO mice
[8] = mouse, 1 h
P493B lymphoma cells = test: Human tumor cell-to-plasma partitioning assay (DON release in P493B cells); details: 10 million cells/mL, prodrug 20 μM, 37° C., 1 h
Procedure: The human plasma-to-tumor cell partitioning assays were conducted using P493B lymphoma following our previously reported method. […] In brief, cells were cultured in 150 cm^2 T-flasks (Falcon™, USA, Cat. #08-772-48) with RPMI Medium 1640 medium 1× containing L-glutamine (RPMI-1640, Corning®, USA, Cat. #10-040-CV), supplemented with 10% v/v Fetal Bovine Serum (FBS, Gibco™, USA, Cat. #26140079), and 1% v/v antimycotic/antibiotic (Gibco™, USA, Cat. #15240062). Cells were grown at 37° C., in a humidified atmosphere with 5% CO2. Cells were harvested after achieving>80% confluency and centrifuged at 200×g for 5 min at 25° C. The obtained cell pellet was re-suspended in 20 mL of Dulbecco's phosphate-buffered saline (DPBS, Gibco™, USA, Cat. #14-190-144) maintained at 37° C. and cell count was determined using an automated cell counter (Bio-Rad, USA). […] Both plasma and cell pellet fractions were analyzed for intact prodrug and DON levels.
Frozen plasma and cell pellets were thawed on wet ice. […] After centrifugation, 100 μL of the supernatant was diluted with 400 μL of water, and analyzed in LC-MS/MS. […]
The underivatized supernatants/derivatized samples were analyzed on a LC-MS/MS system consisting of Dionex ultra high-performance LC system hyphenated with Q Exactive Focus Orbitrap mass spectrometer (Thermo Fisher Scientific Inc., Waltham, MA). […]

Structure (SMILES) | Plasma Stability (% remaining at 60 min) [1] | Efflux [2] | Liver stability (% remaining at 60 min) [3] [%] | Gut Stability (% remaining at 60 min) [4] [%] | Efflux (Efflux) | Plasma Stability (% remaining at 60 min) [6] | further results
COCCOCCOC(=O)[C@H](CCC(=O)C=[N+]=[N-])NC(=O)[C@H](Cc1c[nH]c2ccccc12)NC(=O)CN(C)C [Compound 30b, 2-(2-Methoxyethoxy)ethyl (S)-6-diazo-2-((S)-2-(2-(dimethylamino)acetamido)-3-(1H-indol-3-yl)propanamido)-5-oxohexanoate] | 42 ± 1 (HP) % | – | – | – | – | – | –
Cn1cc(C[C@H](NC(=O)CCCNC(=O)C23CCN(CC2)CC3)C(=O)N[C@@H](CCC(=O)C=[N+]=[N-])C(=O)OC(C)(C)C)c2ccccc21 [Compound 12g, tert-Butyl (S)-6-diazo-2-((S)-3-(1-methyl-1H-indol-3-yl)-2-(4-(quinuclidine-4-carboxamido)butanamido)propanamido)-5-oxohexanoate] | – | 1 | – | – | – | – | –
CN(C)CC(=O)N[C@@H](Cc1c[nH]c2ccccc12)C(=O)N[C@@H](CCC(=O)C=[N+]=[N-])C(=O)OC(C)(C)C [Compound 11b, tert-Butyl (S)-6-diazo-2-((S)-2-(2-(dimethylamino)acetamido)-3-(1H-indol-3-yl)propanamido)-5-oxohexanoate] | 101 ± 0 (HP) % | – | 80 ± 3 | 79 ± 4 | 33 | 68 ± 2 (MP) % | Plasma Stability (% remaining at 60 min) [5]: 3 ± 0 (RP) %; solubility (Solubility): 170 µg/mL (≈ 0.341 mM)
CN(C)CC(=O)N[C@@H](Cc1ccc(C(F)(F)F)cc1)C(=O)N[C@@H](CCC(=O)C=[N+]=[N-])C(=O)OC(C)(C)C [Compound 23a, tert-Butyl (S)-6-diazo-2-((S)-2-(2-(dimethylamino)acetamido)-3-(4-(trifluoromethyl)phenyl)propanamido)-5-oxohexanoate] | – | – | 72 ± 0 | – | 32.76 | 79 ± 2 (MP) % | Plasma Stability (% remaining at 60 min) [7]: 70 ± 14 (Ces1KO) %
CC(C)(C)OC(=O)[C@H](CCC(=O)C=[N+]=[N-])NC(=O)[C@H](Cc1ccccc1)NC(=O)C12CCN(CC1)CC2 [Compound 15b, tert-Butyl (S)-6-diazo-5-oxo-2-((S)-3-phenyl-2-(quinuclidine-4-carboxamido)propanamido)hexanoate] | – | 7.31 | – | – | – | – | –
CC(C)(C)OC(=O)[C@H](CCC(=O)C=[N+]=[N-])NC(=O)CNC(=O)C12CCN(CC1)CC2 [Compound 14d, tert-Butyl (S)-6-diazo-5-oxo-2-(2-(quinuclidine-4-carboxamido)acetamido)hexanoate] | – | 1.48 | – | – | – | – | –
CN(C)CC(=O)N[C@@H](Cc1ccccc1)C(=O)N[C@@H](CCC(=O)C=[N+]=[N-])C(=O)OC(C)(C)C [Compound 15a, tert-Butyl (S)-6-diazo-2-((S)-2-(2-(dimethylamino)acetamido)-3-phenylpropanamido)-5-oxohexanoate] | – | – | 81 ± 2 | 90 ± 1 | 48 | 67 ± 1 (MP) % | Plasma Stability (% remaining at 60 min) [7]: 93 ± 1 (ces1KO MP) %
CC(=O)N[C@@H](Cc1c[nH]c2ccccc12)C(=O)N[C@@H](CCC(=O)C=[N+]=[N-])C(=O)OC(C)C [13′, reference compound] | 96 ± 3 (HP) % | – | – | 11 ± 1 | 23 | 0 ± 0 (MP) % | solubility (Solubility): 240 µg/mL (≈ 0.544 mM); Plasma Stability (% remaining at 60 min) [7]: 94 ± 1 (ces1KO) %
CN(C)CC(=O)NCC(=O)N[C@@H](CCC(=O)C=[N+]=[N-])C(=O)OC(C)(C)C [Compound 14b, tert-Butyl (S)-6-diazo-2-(2-(2-(dimethylamino)acetamido)acetamido)-5-oxohexanoate] | 100 ± 5 (HP) % | – | 90 ± 0 | 99 ± 2 | 33 | 73 ± 2 (MP) % | solubility (Solubility): ~10000 µg/mL (≈ 27.1 mM)
Cn1cc(C[C@H](NC(=O)C23CCN(CC2)CC3)C(=O)N[C@@H](CCC(=O)C=[N+]=[N-])C(=O)OC(C)(C)C)c2ccccc21 [Compound 12b, tert-Butyl (S)-6-diazo-2-((S)-3-(1-methyl-1H-indol-3-yl)-2-(quinuclidine-4-carboxamido)propanamido)-5-oxohexanoate] | – | 3.48 | – | – | – | – | Plasma Stability (% remaining at 60 min) [8]: 92 ± 1 (MP) %; solubility (physchem): 8800 µg/mL (≈ 15.6 mM)
CN(C)CC(=O)N[C@@H](Cc1cccnc1)C(=O)N[C@@H](CCC(=O)C=[N+]=[N-])C(=O)OC(C)(C)C [Compound 17b, tert-Butyl (S)-6-diazo-2-((S)-2-(2-(dimethylamino)acetamido)-3-(pyridin-3-yl)propanamido)-5-oxohexanoate] | 96 ± 3 (HP) % | – | 91 ± 1 | 98 ± 1 | 57 | 82 ± 6 (MP) % | Plasma Stability (% remaining at 60 min) [5]: 33 ± 2 (RP) %; solubility (Solubility): ~10000 µg/mL (≈ 21.7 mM)
CN(C)CC(=O)N[C@@H](CCc1ccccc1)C(=O)N[C@@H](CCC(=O)C=[N+]=[N-])C(=O)OC(C)(C)C [Compound 20a, tert-Butyl (S)-6-diazo-2-((S)-2-(2-(dimethylamino)acetamido)-4-phenylbutanamido)-5-oxohexanoate] | – | – | 69 ± 1 | – | 61.35 | 60 ± 7 (MP) % | Plasma Stability (% remaining at 60 min) [7]: 102 ± 2 (ces1KO) %
Cn1cc(C[C@H](NC(=O)C2CN3CCC2CC3)C(=O)N[C@@H](CCC(=O)C=[N+]=[N-])C(=O)OC(C)(C)C)c2ccccc21 (stereo partly drawn) [Compound 12c, tert-Butyl (2S)-6-diazo-2-((2S)-3-(1-methyl-1H-indol-3-yl)-2-(quinuclidine-3-carboxamido)propanamido)-5-oxohexanoate] | – | 5.37 | – | – | – | – | –
CC(C)(C)OC(=O)[C@H](CCC(=O)C=[N+]=[N-])NC(=O)[C@H](Cc1c[nH]c2ccccc12)NC(=O)C12CCN(CC1)CC2 [Compound 11d, tert-Butyl (S)-2-((S)-3-(1H-indol-3-yl)-2-(quinuclidine-4-carboxamido)propanamido)-6-diazo-5-oxohexanoate] | – | 2 | – | – | – | – | solubility (physchem): 4300 µg/mL (≈ 7.81 mM)
CN(C)CC(=O)N[C@H](C(=O)N[C@@H](CCC(=O)C=[N+]=[N-])C(=O)OC(C)(C)C)c1ccccc1 [Compound 19a, tert-Butyl (S)-6-diazo-2-((S)-2-(2-(dimethylamino)acetamido)-2-phenylacetamido)-5-oxohexanoate] | – | 24.37 | 82 ± 0 | – | – | – | –
CC(=O)N[C@@H](Cc1c[nH]c2ccccc12)C(=O)N[C@@H](CCC(=O)C=[N+]=[N-])C(N)=O [Compound 31a, (S)-2-((S)-2-Acetamido-3-(1H-indol-3-yl)propanamido)-6-diazo-5-oxohexanamide] | 100 ± 2 (HP) % | – | 58 ± 2 | 79 ± 7 | 1 | 6 ± 1 (MP % | –
CN(C)CC(=O)N[C@@H](CCC(=O)C=[N+]=[N-])C(=O)OC(C)(C)C [Compound 5h, tert-Butyl (S)-6-diazo-2-(2-(dimethylamino)acetamido)-5-oxohexanoate] | – | – | 93 ± 1 | 100 ± 1 | 2 | – | P493B cells (DON release; nmol/g) (P493B lymphoma cells): Undetectable
